Each structure is given as a SMILES string.

A short description of series [1]: In vitro skin S9 metabolic stability assay (human). It is filed as in vitro ADME. The note with it: human, s9, pH 7.4. As to the method:
Assay 6: In Vitro Skin S9 Metabolic Stability Assay
The objective of this assay was to assess the metabolic stability of compounds in human and mouse skin S9 sub-fraction. Human and mouse skin S9 sub-fractions obtained from Bioreclamation-IVT (Baltimore, Md.) were thawed on ice and diluted into 0.1M potassium phosphate buffer pH 7.4 to yield final incubation protein concentrations of 1.0 mg/mL. Test compounds (10 mM) were diluted into phosphate buffer to yield final incubation concentrations of 0.2 μM and 2.0 μM. Incubations were conducted at 37° C. temperature following addition of 1 mM NADPH and test aliquots were taken at time points 0, 5, 10, 20, 30 and 45 minutes. Each aliquot was crashed into water with 3% formic acid and 1 μM internal standard. The resulting samples were injected onto an LC-MS/MS system for analysis.
For each incubation, the peak area of the analytes in each t0 aliquot was set to 100% and the peak areas from subsequent time point aliquots were converted to percentage of parent compound remaining relative to t0. The percentage of parent compound remaining at each time point was converted to natural log scale and plotted versus time in minutes to determine a disappearance half-life.

The test system of series [2] is Caco-2 cell monolayers. In words: Caco-2 permeation assay. The note with it: A to B, 5 μM compound, with Verapamil 25 μM, 120 minutes. Format: in vitro ADME. As to the method: Assay 8: Caco-2 Permeation Assay The Caco-2 permeation assay was used as an indication of skin permeability. The assay measures the rate at which test compounds in solution permeate a cell monolayer (designed to mimic the tight junction of human small intestinal monolayers). CacoReady 24-well transwell plates were obtained from […], Calif.). The compounds were evaluated at a concentration of 5 μM from 10 mM DMSO stock solutions in duplicate (n=2). The passive permeability of the compounds tested was evaluated using Caco-2 cell monolayers along with Verapamil (25 μM) to inhibit P-gp transport proteins in the apical to basolateral (A-B) direction. The experiment was conducted in a 37° C., 5% CO2 incubator. Caco-2 culture media consisted of standard filtered DMEM, FCS 10%, L-Glutamine 1% and PenStrep 1%. Basal assay plate was prepared by adding 750 μL of transport buffer to A-B wells. A CacoReadyTM plate was prepared by removing the Caco-2 media from the apical wells and replacing with fresh transport media (200 μL repeated for a total of 3 washes). Blank media (200 μL) was then replaced with diluted compound for A-B wells. To begin the incubation, the basal plate was removed from the incubator and the apical section was added on top of it. […] The permeation coefficient (Kp, mean A to B+Verapamil […]) in cm/sec was calculated as dQ (flux)/(dt×Area×concentration).
On the technique in general: Caco-2 cells form a polarised layer with tight junctions and transporters.

Series [3] concerns the target T1, Tyk2 (Homo sapiens, UniProt P29597).
T1 construct: GST; purchased Life Technologies
Kind of series: Biochemical LanthaScreen Tyk2 kinase assay. The note with it: Km ATP 10 μM; pKi from pIC50 by Cheng-Prusoff; read-out: Tyk 2 (pKi) (converted). As to the method: (§1) Assay 1: Biochemical JAK and Tyk2 Kinase Assays A panel of four LanthaScreen JAK biochemical assays (JAK1, 2, 3 and Tyk2) were carried in a common kinase reaction buffer (50 mM HEPES, pH 7.5, 0.01% Brij-35, 10 mM MgCl2, and 1 mM EGTA). Recombinant GST-tagged JAK enzymes and a GFP-tagged STAT1 peptide substrate were obtained from Life Technologies. Serially or discretely diluted compounds were pre-incubated with each of the four JAK enzymes and the substrate in white 384-well microplates (Corning) at ambient temperature for 1 h. ATP was subsequently added to initiate the kinase reactions in 10 μL total volume, with 1% DMSO. […] Kinase reactions were allowed to proceed for 1 hour at ambient temperature before a 10 μL preparation of EDTA (10 mM final concentration) and Tb-anti-pSTAT1 ([…]) antibody (Life Technologies, 2 nM final concentration) in TR-FRET dilution buffer (Life Technologies) was added. The plates were allowed to incubate at ambient temperature for 1 h before being read on the EnVision reader (Perkin Elmer). Emission ratio signals (520 nm/495 nm) were recorded and utilized to calculate the percent inhibition values based on DMSO and background controls. For dose-response analysis, percent inhibition data were plotted vs. compound concentrations, and IC50 values were determined from a 4-parameter robust fit model with the Prism software (GraphPad Software). Results were expressed as pIC50 (negative logarithm of IC50) and subsequently converted to pKi (negative logarithm of dissociation constant, Ki) using the Cheng-Prusoff equation.
On the technique in general: TR-FRET usually uses a lanthanide donor and a delayed reading to cut background.

Series [4] addresses T2, JAK2 (Homo sapiens, UniProt O60674).
T2 construct: GST; purchased Life Technologies
In words: Biochemical LanthaScreen JAK2 kinase assay. Particulars: Km ATP 3 μM; pKi from pIC50 by Cheng-Prusoff; read-out: JAK 2 (pKi) (converted). As to the method: as §1

T2 sequence (O60674 whole entry): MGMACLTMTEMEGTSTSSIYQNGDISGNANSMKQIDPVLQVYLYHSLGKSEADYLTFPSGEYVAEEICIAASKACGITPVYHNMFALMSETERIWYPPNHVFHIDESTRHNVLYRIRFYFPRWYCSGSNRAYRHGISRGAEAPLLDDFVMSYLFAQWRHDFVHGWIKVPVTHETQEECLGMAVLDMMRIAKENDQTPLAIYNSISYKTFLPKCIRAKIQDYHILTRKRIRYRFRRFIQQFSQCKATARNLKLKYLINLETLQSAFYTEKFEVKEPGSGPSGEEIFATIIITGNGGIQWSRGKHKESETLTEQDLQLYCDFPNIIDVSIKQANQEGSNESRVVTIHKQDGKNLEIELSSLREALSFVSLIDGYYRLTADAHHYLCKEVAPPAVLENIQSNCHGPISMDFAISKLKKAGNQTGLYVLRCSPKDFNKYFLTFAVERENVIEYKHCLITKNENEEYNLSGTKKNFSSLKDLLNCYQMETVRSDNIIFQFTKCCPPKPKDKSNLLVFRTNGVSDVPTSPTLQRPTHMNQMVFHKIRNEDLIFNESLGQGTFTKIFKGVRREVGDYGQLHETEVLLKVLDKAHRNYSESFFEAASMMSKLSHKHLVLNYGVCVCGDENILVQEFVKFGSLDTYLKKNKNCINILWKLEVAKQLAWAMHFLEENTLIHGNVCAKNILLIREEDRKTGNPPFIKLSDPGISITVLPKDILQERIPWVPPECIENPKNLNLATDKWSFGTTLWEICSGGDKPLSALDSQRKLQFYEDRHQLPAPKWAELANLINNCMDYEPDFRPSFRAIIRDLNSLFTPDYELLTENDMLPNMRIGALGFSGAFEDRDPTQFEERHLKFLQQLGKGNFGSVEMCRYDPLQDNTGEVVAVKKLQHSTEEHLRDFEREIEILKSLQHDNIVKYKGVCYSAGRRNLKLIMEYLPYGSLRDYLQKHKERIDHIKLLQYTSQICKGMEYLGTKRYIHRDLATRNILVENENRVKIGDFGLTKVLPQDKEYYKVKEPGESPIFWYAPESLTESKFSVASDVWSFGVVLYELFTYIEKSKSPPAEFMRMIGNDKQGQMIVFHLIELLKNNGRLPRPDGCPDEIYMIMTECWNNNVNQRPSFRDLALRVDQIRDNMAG
T1 sequence (P29597 whole entry): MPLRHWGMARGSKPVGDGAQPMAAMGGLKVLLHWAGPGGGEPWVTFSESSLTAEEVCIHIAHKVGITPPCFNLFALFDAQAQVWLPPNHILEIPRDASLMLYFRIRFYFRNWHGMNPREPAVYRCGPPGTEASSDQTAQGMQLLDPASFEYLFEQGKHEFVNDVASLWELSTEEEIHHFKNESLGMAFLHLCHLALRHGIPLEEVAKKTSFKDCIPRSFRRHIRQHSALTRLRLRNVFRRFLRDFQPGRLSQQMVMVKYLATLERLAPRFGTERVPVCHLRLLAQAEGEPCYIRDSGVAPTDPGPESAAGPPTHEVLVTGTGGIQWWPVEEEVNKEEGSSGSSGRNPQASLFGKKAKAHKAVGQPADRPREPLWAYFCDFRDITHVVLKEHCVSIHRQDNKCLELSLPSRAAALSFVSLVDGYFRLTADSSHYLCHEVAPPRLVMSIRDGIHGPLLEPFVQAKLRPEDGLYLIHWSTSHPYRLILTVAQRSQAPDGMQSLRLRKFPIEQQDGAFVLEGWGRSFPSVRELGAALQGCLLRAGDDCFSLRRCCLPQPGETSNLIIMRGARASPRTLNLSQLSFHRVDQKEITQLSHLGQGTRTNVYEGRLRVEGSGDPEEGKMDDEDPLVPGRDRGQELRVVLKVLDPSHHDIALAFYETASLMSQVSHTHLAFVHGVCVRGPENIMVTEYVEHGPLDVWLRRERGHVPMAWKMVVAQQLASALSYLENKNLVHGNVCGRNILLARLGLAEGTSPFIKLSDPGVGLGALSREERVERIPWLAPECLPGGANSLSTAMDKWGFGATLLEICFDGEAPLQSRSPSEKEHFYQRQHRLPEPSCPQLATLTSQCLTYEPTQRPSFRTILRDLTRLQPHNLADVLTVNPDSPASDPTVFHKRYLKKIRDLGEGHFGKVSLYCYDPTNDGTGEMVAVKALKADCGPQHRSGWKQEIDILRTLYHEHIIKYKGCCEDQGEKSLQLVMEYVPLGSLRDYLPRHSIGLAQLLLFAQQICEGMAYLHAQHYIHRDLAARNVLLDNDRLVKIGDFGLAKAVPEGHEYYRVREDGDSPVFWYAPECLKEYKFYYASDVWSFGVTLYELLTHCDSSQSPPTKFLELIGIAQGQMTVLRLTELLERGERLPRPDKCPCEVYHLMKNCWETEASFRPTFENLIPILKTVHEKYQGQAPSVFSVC

Broadly, the half-life is how long it takes for the measured level to halve. Turning to `CCCC(=O)OCc1nc(N(C)[C@@H]2C[C@H]3CCC[C@@H](C2)N3S(=O)(=O)CC)nc(Nc2cc(C)[nH]n2)c1F` [Compound 3, (2-(((1R,3s,5S)-9-(ethylsulfonyl)-9-azabicyclo[3.3.1]nonan-3-yl)(methyl)amino)-5-fluoro-6-((5-methyl-1H-pyrazol-3-yl)amino)pyrimidin-4-yl)methyl butyrate], in series [1], the half-life at 0.2 μM is greater than 30 min and the half-life at 2 μM was greater than 30 min.
As to `CCCCC(=O)OCc1nc(N(C)[C@@H]2C[C@H]3CCC[C@@H](C2)N3S(=O)(=O)CC)nc(Nc2cc(C)[nH]n2)c1F` [Compound 4, (2-(((1R,3s,5S)-9-(ethylsulfonyl)-9-azabicyclo[3.3.1]nonan-3-yl)(methyl)amino)-5-fluoro-6-((5-methyl-1H-pyrazol-3-yl)amino)pyrimidin-4-yl)methyl pentanoate], in series [1], the half-life at 0.2 μM was in the range of 15 to 30 min and the half-life at 2 μM was greater than 30 min.
For the compound `CCS(=O)(=O)N1[C@@H]2CCC[C@H]1C[C@H](N(C)c1nc(CO)c(F)c(Nc3cc(C)[nH]n3)n1)C2` [Compound M, (2-(((1R,3s,5S)-9-(ethylsulfonyl)-9-azabicyclo[3.3.1]nonan-3-yl)(methyl)amino)-5-fluoro-6-((5-methyl-1H-pyrazol-3-yl)amino)pyrimidin-4-yl)methanol], the “Cacoverap Kp” value in series [2] is 42.3 ×10⁻⁶ cm/s. The Ki is 0.1 to 1 nM in series [3] and no more than 0.1 nM in series [4].
In series [1], `CCC(=O)OCc1nc(N(C)[C@@H]2C[C@H]3CCC[C@@H](C2)N3S(=O)(=O)CC)nc(Nc2cc(C)[nH]n2)c1F` [Compound 2, (2-(((1R,3s,5S)-9-(ethylsulfonyl)-9-azabicyclo[3.3.1]nonan-3-yl)(methyl)amino)-5-fluoro-6-((5-methyl-1H-pyrazol-3-yl)amino)pyrimidin-4-yl)methyl propionate] returned a half-life at 0.2 μM greater than 30 min and a half-life at 2 μM greater than 30 min.
With `CCS(=O)(=O)N1[C@@H]2CCC[C@H]1C[C@H](N(C)c1nc(COC(=O)C3CCOCC3)c(F)c(Nc3cc(C)[nH]n3)n1)C2` [Compound 7, (2-(((1R,3s,5S)-9-(ethylsulfonyl)-9-azabicyclo[3.3.1]nonan-3-yl)(methyl)amino)-5-fluoro-6-((5-methyl-1H-pyrazol-3-yl)amino)pyrimidin-4-yl)methyl tetrahydro-2H-pyran-4-carboxylate], the Ki in series [3] and in series [4] was no more than 0.1 nM in each case.
As to `CCS(=O)(=O)N1[C@@H]2CCC[C@H]1C[C@H](N(C)c1nc(COC(=O)OC3CCCCC3)c(F)c(Nc3cc(C)[nH]n3)n1)C2` [Compound 6, cyclohexyl ((2-(((1R,3s,5S)-9-(ethylsulfonyl)-9-azabicyclo[3.3.1]nonan-3-yl)(methyl)amino)-5-fluoro-6-((5-methyl-1H-pyrazol-3-yl)amino)pyrimidin-4-yl)methyl) carbonate], the half-life at 0.2 μM in series [1] was greater than 30 min. The compound further had a half-life at 2 μM in series [1] greater than 30 min. Besides, the Ki in series [3] was 1 to 10 nM; in series [4], 0.1 to 1 nM.
`CCS(=O)(=O)N1[C@@H]2CCC[C@H]1C[C@H](N(C)c1nc(COC(=O)OC3CCOCC3)c(F)c(Nc3cc(C)[nH]n3)n1)C2` [Compound 9, (2-(((1R,3s,5S)-9-(ethylsulfonyl)-9-azabicyclo[3.3.1]nonan-3-yl)(methyl)amino)-5-fluoro-6-((5-methyl-1H-pyrazol-3-yl)amino)pyrimidin-4-yl)methyl (tetrahydro-2H-pyran-4-yl) carbonate]: the Ki in series [3] was 0.1 to 1 nM; in series [4], no more than 0.1 nM.
Turning to `CCS(=O)(=O)N1[C@@H]2CCC[C@H]1C[C@H](N(C)c1nc(COC(C)=O)c(F)c(Nc3cc(C)[nH]n3)n1)C2` [Compound 1, (2-(((1R,3s,5S)-9-(ethylsulfonyl)-9-azabicyclo[3.3.1]nonan-3-yl)(methyl)amino)-5-fluoro-6-((5-methyl-1H-pyrazol-3-yl)amino)pyrimidin-4-yl)methyl acetate], the half-life at 0.2 μM in series [1] is greater than 30 min. The half-life at 2 μM in series [1] is greater than 30 min. The Ki in series [3] and in series [4] was no more than 0.1 nM in each case.
